Test results published in patent US6495568B1, “Hydroxamic acid derivatives as matrix metalloprotease (MMP) inhibitors” (Warner-Lambert Company, priority 1997, dated 2002).

| melting point | SMILES |
| --- | --- |
| 181 to 183 °C | Cc1cc(C2=CCN(S(=O)(=O)CC(=O)NO)CC2)ccc1-c1ccc(F)c(Cl)c1 [Example 55, N-Hydroxy-2-{4-[4-(3chloro-4-fluorophenyl)-3-methylphenyl]-1,2,3,6-tetrahydropyridin-1-ylsulphonyl}acetamide] |
| 176 to 179 °C | O=C(CS(=O)(=O)N1CCC(c2ccc(Oc3ccccc3)cc2)CC1)NO [Example 46, N-Hydroxy-2-[4-(4-phenoxyphenyl)piperidin-1-ylsulphonyl]acetamide] |
| 213 to 215 °C | Cc1cc(C2CCN(S(=O)(=O)C(C)(C)C(=O)NO)CC2)ccc1-c1ccc2c(c1)nc(C)n2C [Example 63, N-Hydroxy-2-{4-[4-(1,2-dimethylbenzimidazol-5-yl)-3-methylphenyl]piperidin-1-ylsulphonyl]-2-methylpropionamide] |
| 149 to 152 °C | Cc1cc(C2=CCN(S(=O)(=O)CC(=O)NO)CC2)ccc1-c1ccc2c(c1)CCC2 [Example 59, N-Hydroxy-2-{4-[4-(indan-5-yl)-3-methylphenyl]-1,2,3,6-tetrahydropyridin-1-ylsulphonyl}acetamide] |
| 155 to 156 °C | COCCOc1cccc(-c2ccc(C3CCN(S(=O)(=O)C(C)(C)C(=O)NO)CC3)cc2C)c1 [Example 47, N-Hydroxy-2-{4-[4-(3-[2-methoxyethoxy]phenyl)-3-methylphenyl]piperidin-1-ylsulphonyl}-2-methylpropanamide] |
| 135 to 136 °C | COCCC(C(=O)NO)S(=O)(=O)N1CC=C(c2ccc(-c3ccccc3)c(C)c2)CC1 (racemic) [Example 48, N-Hydroxy-4-methoxy-2(R,S)-[4-(3-methyl-4-phenylphenyl)-1,2,3,6-tetrahydropyridin-1-ylsulphonyl]butanamide] |
| 160 to 163 °C | Cc1cc(C2=CCN(S(=O)(=O)CC(=O)NO)CC2)ccc1-c1ccccc1F [Example 57, N-Hydroxy-2-{4-[4-(2-fluorophenyl)-3-methylphenyl]-1,2,3,6-tetrahydropyridin-1-ylsulphonyl}acetamide] |
| 184 to 186 °C | Cc1cc(C2CCN(S(=O)(=O)C(C)(C)C(=O)NO)CC2)ccc1-c1ccc2c(c1)OC(C)(C)O2 [Example 62, N-Hydroxy-2-{4-[4-(2,2-dimethyl-1,3-benzodioxol-5-yl)-3-methylphenyl]-piperidin-1-ylsulphonyl}-2-methylpropionamide] |
| 172 to 174 °C | COc1ccc(-c2ccc(C3=CCN(S(=O)(=O)CC(=O)NO)CC3)cc2C)cc1OC [Example 58, N-Hydroxy-2-{4-[4-(3,4-dimethoxyphenyl)-3-methylphenyl]-1,2,3,6-tetrahydropyridin-1-ylsulphonyl}acetamide] |
| 154 °C | Cc1cc(C2=CCN(S(=O)(=O)CC(=O)NO)CC2)ccc1-c1cccc(OC(F)(F)F)c1 [Example 60, N-Hydroxy-2-{4-[3-methyl-4-(3-trifluoromethoxyphenyl)phenyl]-1,2,3,6-tetrahydropyridin-1-ylsulphonyl}acetamide] |
| 202 to 205 °C | O=C(NO)C(Cc1ccccc1)S(=O)(=O)N1CC=C(c2ccc(-c3ccccc3)cc2)CC1 (racemic) [Example 53, N-Hydroxy-3-phenyl-2(R,S)-[4-(4-phenylphenyl)-1,2,3,6-tetrahydropyridin-1-ylsulphonyl]propanamide] |

More lines, now with the values behind:

| SMILES | melting point |
| --- | --- |
| CCc1cccc(-c2ccc(C3=CCN(S(=O)(=O)CC(=O)NO)CC3)cc2C)c1 [Example 23, N-Hydroxy-2-{4-[4-(3-ethylphenyl)-3-methylphenyl]-1,2,3,6-tetrahydropyridin-1-ylsulphonyl}acetamide] | 151 to 154 °C |
| COc1cc(C2=CCN(S(=O)(=O)CC(=O)NO)CC2)ccc1-c1ccccc1 [Example 18, N-Hydroxy-2-[4-(3-methoxy-4-phenylphenyl)-1,2,3,6-tetrahydropyridin-1-ylsulphonyl]acetamide] | 175 to 177 °C |
| CCOc1cccc(-c2ccc(C3CCN(S(=O)(=O)CC(=O)NO)CC3)cc2C)c1 [Example 31, N-Hydroxy-2-{4-[4-(3-ethoxyphenyl)-3-methylphenyl]piperidin-1-ylsulphonyl}acetamide] | 179 to 180 °C |
| Cc1cc(C2=CCN(S(=O)(=O)CC(=O)NO)CC2)ccc1-c1cccc(CO)c1 [Example 39, N-Hydroxy-2-{4-[4-(3-hydroxymethylphenyl)-3-methylphenyl]-1,2,3,6-tetrahydropyridin-1-ylsulphonyl}acetamide] | 174 to 176 °C |
| CCOc1cccc(-c2ccc(C3=CCN(S(=O)(=O)CC(=O)NO)CC3)cc2)c1 [Example 21, N-Hydroxy-2-{4-[4-(3-ethoxyphenyl)phenyl]-1,2,3,6-tetrahydropyridin-1-ylsulphonyl}acetamide] | 168 to 170 °C |
| COCc1cccc(-c2ccc(C3=CCN(S(=O)(=O)CC(=O)NO)CC3)cc2C)c1 [Example 42, N-Hydroxy-2-{4-[4-(3-methoxymethylphenyl)-3-methylphenyl]-1,2,3,6-tetrahydropyridin-1-ylsulphonyl}acetamide] | 151 to 153 °C |
| COc1cccc(-c2ccc(C3CCN(S(=O)(=O)C(C)(C)C(=O)NO)CC3)cc2OC)c1 [Example 26, N-Hydroxy-2-{4-[3-methoxy-4-(3-methoxyphenyl)phenyl]piperidin-1-ylsulphonyl}-2-methylpropanamide] | 161 to 163 °C |
| COc1cc(C2=CCN(S(=O)(=O)C(C)(C)C(=O)NO)CC2)ccc1-c1ccccc1 [Example 19, N-Hydroxy-2-[4-(3-methoxy-4-phenylphenyl)-1,2,3,6-tetrahydropyridin-1-ylsulphonyl]-2-methylpropanamide] | 156 to 158 °C |
| CCOc1cccc(-c2ccc(C3CCN(S(=O)(=O)C(C)(C)C(=O)NO)CC3)cc2OC)c1 [Example 27, N-Hydroxy-2-{4-[4(3-ethoxyphenyl)-3-methoxyphenyl]piperidin-1-ylsulphonyl}-2-methylpropanamide] | 134 to 136 °C |
| CCOc1cccc(-c2ccc(C3CCN(S(=O)(=O)C(C)(C)C(=O)NO)CC3)cc2C)c1 [Example 32, N-Hydroxy-2-{4-[4-(3-ethoxyphenyl)-3-methylphenyl]piperidin-1-ylsulphonyl}-2-methylpropanamide] | 172 to 174 °C |
| O=C(CS(=O)(=O)N1CCC(c2ccccc2)CC1)NO [Example 5, N-Hydroxy-2-(4-phenylpiperidin-1-ylsulphonyl)acetamide] | 185 to 187 °C |
| O=C(CS(=O)(=O)N1CCC(Cc2ccccc2)CC1)NO [Example 6, N-Hydroxy-2-(4-benzylpiperidin-1-ylsulphonyl)acetamide] | 132 to 135 °C |
| CCOc1cccc(-c2ccc(C3=CCN(S(=O)(=O)C(C)(C)C(=O)NO)CC3)cc2C)c1 [Example 30, N-Hydroxy-2-{4-[4-(3-ethoxyphenyl)-3-methylphenyl]-1,2,3,6-tetrahydropyridin-1-ylsulphonyl}2-methylpropanamide] | 116 to 118 °C |
| O=C(CS(=O)(=O)N1CC=C(c2ccccc2)CC1)NO [Example 4, N-Hydroxy-2-(4-phenyl-1,2,3,6-tetrahydropyridin-1-ylsulphonyl)acetamide] | 175 to 176 °C |
| COc1cccc(-c2ccc(C3=CCN(S(=O)(=O)CC(=O)NO)CC3)cc2C)c1 [Example 22, N-Hydroxy-2-{4-[4-(3-methoxyphenyl)-3-methylphenyl]-1,2,3,6-tetrahydropyridin-1-ylsulphonyl}acetamide] | 162 to 165 °C |
| Cc1cc(C2=CCN(S(=O)(=O)CC(=O)NO)CC2)ccc1-c1cccc(C(F)(F)F)c1 [Example 45, N-Hydroxy-2-{4[3-methyl-4-(3-trifluoromethylphenyl)phenyl]-1,2,3,6-tetrahydropyridin-1-ylsulphonyl}acetamide] | 168 to 170 °C |
| CCCCC(C(=O)NO)S(=O)(=O)N1CC=C(c2ccc(-c3ccccc3)cc2)CC1 (racemic) [Example 13, N-Hydroxy-2(R,S)-[4-(4-phenylphenyl)-1,2,3,6-tetrahydropyridin-1-ylsulphonyl]hexanamide] | 186 to 189 °C |
| O=C(CS(=O)(=O)N1CC=C(c2ccc(-c3ccccc3)c(F)c2)CC1)NO [Example 20, N-Hydroxy-2-[4-(3-fluoro-4-phenylphenyl)-1,2,3,6-tetrahydropyridin-1-ylsulphonyl]acetamide] | 184 to 188 °C |
| O=C(CS(=O)(=O)N1CC=C(c2ccc(-c3ccccc3)cc2)CC1)NO [Example 1, N-Hydroxy-2-[4-(4-phenylphenyl)-1,2,3,6-tetrahydropyridin-1-ylsulphonyl]acetamide] | 216 to 218 °C |
| C=C(C)CC(C(=O)NO)S(=O)(=O)N1CC=C(c2ccc(-c3ccccc3)cc2)CC1 (racemic) [Example 14, N-Hydroxy-4-methyl-2(R,S)-[4-(4-phenylphenyl)-1,2,3,6-tetrahydropyridin-1-ylsulphonyl]pent-4-enamide] | 170 to 171 °C |
| Cc1cc(C2=CCN(S(=O)(=O)CC(=O)NO)CC2)ccc1-c1cccnc1 [Example 34, N-Hydroxy-2-{4-[3-methyl-4-(pyridin-3-yl)phenyl]-1,2,3,6-tetrahydropyridin-1-ylsulphonyl}acetamide] | 132 to 136 °C |
| COCCOc1cccc(-c2ccc(C3=CCN(S(=O)(=O)CC(=O)NO)CC3)cc2C)c1 [Example 43, N-Hydroxy-2-{4-[4-(3-[2-methoxyethoxy]phenyl)-3-methylphenyl]-1,2,3,6-tetrahydropyridin-1-ylsulphonyl}acetamide] | 158 to 160 °C |
